The test system of the experiment is C. elegans. As to the kind of experiment: microbe, parasite or virus in culture. The note with it: Caenorhabditis elegans.
Setting [1] is: 0 h, read-out: Percentage of motility inhibition 0 h, Table S2, C. elegans SS assay, 110 μM, 0 h, averages of 4 data points.
Where [2] appears, read: 24 h, read-out: Percentage of motility inhibition 24 h, Table S2, C. elegans SS assay, 110 μM, 24 h, averages of 4 data points.
Setting [3] is: 0 h, read-out: Percentage of motility inhibition 0 h.
[4] abbreviates: 24 h, read-out: Percentage of motility inhibition 24 h.

Where two headings read alike, the source gives them in different places.

Consider `O=C(NCNC(=O)NC1C(=O)NC(=O)N1CO)NC1C(=O)NC(=O)N1CO` (centres unmarked) [Imidazolidinyl urea], for which the inhibition at 110 µM was 28% under setting [1] and 10% under setting [2].

For the molecule `O=C(O)CNCC(=O)O` [Iminodiacetic acid], the inhibition at 110 µM under setting [1] is 15% and the inhibition at 110 µM under setting [2] was found to be 0%. The matching figures for `C/C1=C\C[C@]2(C(C)C)CC[C@@](C)(O2)[C@@H](O)CC/C(C)=C/CC1` [Incensole]: 2% and 29%. In the case of `O=C1Nc2ccccc2/C1=C1/Nc2ccccc2C1=O` [Indirubin], the inhibition at 110 µM under setting [2] turned out to be 6%. As for `c1ccc2[nH]ccc2c1` [Indole], the inhibition at 110 µM runs as follows: under setting [3], 13%; under setting [4], 9%. For `NC(=O)Cc1c[nH]c2ccccc12` [Indole‐3‐acetamide], the inhibition at 110 µM runs as follows: under setting [1], 0%; under setting [2], 0%.

On to `O=C(O)CCCc1c[nH]c2ccccc12` [Indole‐3‐butyric acid], for which the inhibition at 110 µM reads like this: under setting [1], 2%; under setting [2], 0%. Taken in the same sequence, the figures for `OCc1c[nH]c2ccccc12` [Indole‐3‐carbinol] were 0% and 18%. The matching figures for `O=C(O)c1c[nH]c2ccccc12` [Indole‐3‐carboxylic acid]: 0% and 0%. As for `C/C=C(/C)C(=O)O[C@H]1C(C)=C[C@]23C(=O)[C@@H](C=C(CO)[C@@H](O)[C@]12O)[C@H]1[C@@H](C[C@H]3C)C1(C)C` [Ingenol Mebutate], the inhibition at 110 µM worked out at 1% under setting [1] and 0% under setting [2]. The matching figures for `O=c1[nH]cnc2c1ncn2[C@@H]1O[C@H](CO)[C@@H](O)[C@H]1O` [Inosine]: 34% and 10%. The matching figures for `COc1cc(-c2coc3cc(O)c(OC)c(O)c3c2=O)cc(O)c1OC` [Irigenin]: 14% and 3%.

In the case of `COc1cc(-c2coc3cc4c(c(OC)c3c2=O)OCO4)cc(OC)c1OC` [Irisflorentin], the inhibition at 110 µM under setting [1] was 26% and the inhibition at 110 µM under setting [2] was 34%. In the case of `COc1ccc(-c2coc3cc(O)c(OC)c(O)c3c2=O)cc1` [Irisolidone], the inhibition at 110 µM under setting [1] is 0% and the inhibition at 110 µM under setting [2] was found to be 0%. Turning to `O=C1Nc2ccccc2C1=O` [Isatin], the inhibition at 110 µM is 25% under setting [1] and 3% under setting [2]. The matching figures for `C[C@@H](c1nc(-c2ccc(C#N)cc2)cs1)[C@](O)(Cn1cncn1)c1cc(F)ccc1F` [Isavuconazole]: 25% and 0%. On to `C=C1C(=O)O[C@@H]2C[C@@]3(C)CCCC(=C)[C@@H]3C[C@H]12` [Isoalantolactone], for which the inhibition at 110 µM is 2% under setting [1] and 12% under setting [2]. Taken in the same sequence, the figures for `CC(C)=CCc1c(O)ccc(C(=O)/C=C/c2ccc(O)cc2)c1O` [Isobavachalcone] were 6% and 15%. The matching figures for `C=C[C@H]1CN2CC[C@@]3(C(=O)Nc4ccccc43)[C@@H]2C[C@@H]1/C(=C\OC)C(=O)OC` [Isocorynoxeine]: 0% and 0%. The matching figures for `C=C1C[C@]2(O)O[C@@]3(CC2=C(C)C)[C@@H](C)CC[C@@H]13` [Isocurcumenol]: 5% and 24%. As to `C/C=C(\C)C(=O)O[C@H]1[C@H](O)[C@]2(COC(C)=O)[C@H](O)C[C@]3(C)C(=CC[C@@H]4[C@@]5(C)CC[C@H](O[C@@H]6O[C@H](C(=O)O)[C@@H](O[C@@H]7O[C@H](CO)[C@@H](O)[C@H](O)[C@H]7O)[C@H](O)[C@H]6O[C@@H]6O[C@H](CO)[C@@H](O)[C@H](O)[C@H]6O)[C@](C)(CO)[C@@H]5CC[C@]43C)[C@@H]2CC1(C)C` [Isoescin IA], the inhibition at 110 µM by setting is: under setting [1], 8%; under setting [2], 1%. The matching figures for `C/C=C(/C)C(=O)O[C@H]1[C@H](O)[C@]2(COC(C)=O)[C@H](O)C[C@]3(C)C(=CC[C@@H]4[C@@]5(C)CC[C@H](O[C@@H]6O[C@H](C(=O)O)[C@@H](O[C@@H]7O[C@H](CO)[C@@H](O)[C@H](O)[C@H]7O)[C@H](O)[C@H]6O[C@@H]6O[C@H](CO)[C@@H](O)[C@H](O)[C@H]6O)[C@](C)(CO)[C@@H]5CC[C@]43C)[C@@H]2CC1(C)C` [Isoescin IB]: 9% and 0%. The matching figures for `COc1ccc(-c2cc(=O)c3c(O)cc(O)c(-c4cc(-c5cc(=O)c6c(O)cc(O)cc6o5)ccc4OC)c3o2)cc1` [Isoginkgetin]: 17% and 19%. Turning to `COc1ccc(C[C@@H]2c3cc(Oc4cc(C[C@@H]5c6cc(O)c(OC)cc6CCN5C)ccc4O)c(OC)cc3CCN2C)cc1` [Isoliensinine], the inhibition at 110 µM runs as follows: under setting [3], 3%; under setting [4], 17%. For `C=C[C@@]1(C)Cc2occ(C)c2[C@@H]2OC(=O)C(=C)[C@@H]21` [Isolinderalactone], the inhibition at 110 µM is, setting by setting: under setting [1], 13%; under setting [2], 9%. The matching figures for `O=C(/C=C/c1ccc(O)cc1)c1ccc(O)cc1O` [Isoliquiritigenin]: 16% and 4%.

On to `O=C(/C=C/c1ccc(O[C@@H]2O[C@H](CO)[C@@H](O)[C@H](O)[C@H]2O)cc1)c1ccc(O)cc1O` [Isoliquiritin], for which the inhibition at 110 µM under setting [1] was 24% and the inhibition at 110 µM under setting [2] amounted to 2%.

Regarding `NNC(=O)c1ccncc1` [Isoniazid], the inhibition at 110 µM under setting [1] came out at 26% and the inhibition at 110 µM under setting [2] was 27%. Taken in the same sequence, the figures for `O=C(O)c1ccncc1` [Isonicotinic acid] were 0% and 0%. The matching figures for `O=c1cc(-c2ccc(O)c(O)c2)oc2cc(O)c([C@@H]3O[C@H](CO)[C@@H](O)[C@H](O)[C@H]3O)c(O)c12` [Isoorientin]: 6% and 22%.

Turning to `C=C[C@@]1(C)CC[C@H]2C(=CC[C@@H]3[C@]2(C)CCC[C@@]3(C)C(=O)O)C1` [Isopimaric acid], the inhibition at 110 µM is, setting by setting: under setting [3], 0%; under setting [4], 14%. Turning to `O=c1c(O[C@@H]2O[C@H](CO)[C@@H](O)[C@H](O)[C@H]2O)c(-c2ccc(O)c(O)c2)oc2cc(O)cc(O)c12` [Isoquercitrin], the inhibition at 110 µM is 31% under setting [1] and 2% under setting [2].

As to `COc1cc(-c2oc3cc(O)cc(O)c3c(=O)c2O)ccc1O` [Isorhamnetin], the inhibition at 110 µM was found to be 22% under setting [1] and 2% under setting [2].

For the molecule `C[C@@H]1O[C@@H](OC[C@H]2O[C@@H](Oc3cc(O)c4c(=O)cc(-c5ccc(O)cc5)oc4c3)[C@H](O)[C@@H](O)[C@@H]2O)[C@H](O)[C@H](O)[C@H]1O` [Isorhoifolin], the inhibition at 110 µM reads like this: under setting [1], 0%; under setting [2], 20%. Regarding `CC[C@H]1CN2CC[C@@]3(C(=O)Nc4ccccc43)[C@@H]2C[C@@H]1/C(=C\OC)C(=O)OC` [Isorhynchophylline], the inhibition at 110 µM under setting [1] was 0% and the inhibition at 110 µM under setting [2] amounted to 0%.

In the case of `C[C@@]12CC[C@@H]3[C@@](CC[C@H]4[C@@]3(C)CCC[C@@]4(C)C(=O)O)(CC1=O)C2` [Isosteviol], the inhibition at 110 µM reads like this: under setting [1], 0%; under setting [2], 2%. Taken in the same sequence, the figures for `O=c1cc(-c2ccc(O)cc2)oc2cc(O)c([C@@H]3O[C@H](CO)[C@@H](O)[C@H](O)[C@H]3O)c(O)c12` [Isovitexin] were 11% and 6%. For the molecule `CCC(C)n1ncn(-c2ccc(N3CCN(c4ccc(OCC5COC(Cn6cncn6)(c6ccc(Cl)cc6Cl)O5)cc4)CC3)cc2)c1=O` (centres unmarked) [Itraconazole], the inhibition at 110 µM under setting [1] was 18% and the inhibition at 110 µM under setting [2] was found to be 22%. With `CC1=C2C(=O)[C@H]3[C@@H](CC=C4C[C@@H](O)CC[C@@]43C)[C@@H]2CC[C@]12O[C@@H]1C[C@H](C)CN[C@H]1[C@H]2C` [Jervine], the inhibition at 110 µM by setting is: under setting [1], 0%; under setting [2], 33%. Taken in the same sequence, the figures for `COc1ccc(-c2oc3cc(O)cc(O)c3c(=O)c2O)cc1` [Kaempferide] were 49% and 0%. The matching figures for `C[C@@H]1O[C@@H](Oc2cc(O)c3c(=O)c(O[C@@H]4O[C@@H](C)[C@H](O)[C@@H](O)[C@H]4O)c(-c4ccc(O)cc4)oc3c2)[C@H](O)[C@H](O)[C@H]1O` [Kaempferitrin]: 4% and 16%.

As for `O=c1c(O)c(-c2ccc(O)cc2)oc2cc(O)cc(O)c12` [Kaempferol], the inhibition at 110 µM was 0% under setting [1] and 25% under setting [2]. The matching figures for `C=C(C)[C@H]1CN[C@H](C(=O)O)[C@H]1CC(=O)O` [Kainic acid]: 0% and 0%.

Take `C=C1C(=O)[C@@]23[C@H](O)C[C@@H]4C(C)(C)CC[C@H](O)[C@@]4(CO)[C@@H]2CC[C@@H]1[C@H]3O` [Kamebakaurin]: the inhibition at 110 µM by setting is: under setting [1], 0%; under setting [2], 11%. The matching figures for `C=C1C[C@@]23CC[C@H]4[C@@](C)(CCC[C@@]4(C)C(=O)O)[C@@H]2CC[C@@H]1C3` [Kaurenoic acid]: 0% and 7%. Taken in the same sequence, the figures for `CC(=O)N1CCN(c2ccc(OCC3COC(Cn4ccnc4)(c4ccc(Cl)cc4Cl)O3)cc2)CC1` (centres unmarked) [Ketoconazole] were 13% and 0%. Taken in the same sequence, the figures for `O=C1N[C@@H]2[C@@H](O)[C@@H](O)[C@H](O)[C@@H](CO)N2C1=O` [Kifunensine] were 30% and 5%. In the case of `C[C@@]1(CO)C[C@@H](O)C[C@@]2(C)[C@@H]3CC[C@](C)([C@@H](O)CO)C=C3CC[C@H]12` [Kirenol], the inhibition at 110 µM worked out at 0% under setting [1] and 15% under setting [2].

The inhibition is the percentage by which the read-out fell short of the control.

These data come from PMC11855827, “High-Throughput Screening of Five Compound Libraries for Anthelmintic Activity and Toxicity Leads to the Discovery of Two Flavonoid Compounds” (International Journal of Molecular Sciences, 2025).
